Experimental data published in US9375409B2, “Use of polyunsaturated ketones for the treatment of psoriasis” (Avexxin AS, priority 2002, dated 2016).
Like-named read-outs stand apart in the source and are kept apart here.

Experiments:
HaCaT cells = assay: MTT assay (toxicity); type: cell-based, human
Protocol: Confluent cells were pretreated with inhibitors in serum free medium for 1 hour, and then treated with stimulating agent for 1 hour. Conversion of substrate [3-(4, 5-dimethylthiazol-2-yl)-2, 5-diphenyl tetrazolium bromide] was measured as optical density at 580 nm after 4 hours according to Mosmann [Mosmann T, J. Immunol. Methods 65, 55-63, 1983]. For each concentration of inhibitor nine parallels were measured.

[1] = target: recombinant human IV PLA2 (Homo sapiens, UniProt P47712); assay: biochemical; details: for inhibition at 5 µM: read-out: inhibition of IV PLA2 enzyme activity
[2] = test system: PGE2 production in HaCaT cells; assay: A23187-induced PGE2 release in LPS-stimulated HaCaT cells (PGE2 EIA); type: cell-based; details: Homo sapiens, 0.5 h, read-out: IC50 for inhibiting A23187-induced PGE2 release
[3] = read-out: IC50 for IV PLA2 inhibition

recombinant human IV PLA2, sequence (P47712 whole entry): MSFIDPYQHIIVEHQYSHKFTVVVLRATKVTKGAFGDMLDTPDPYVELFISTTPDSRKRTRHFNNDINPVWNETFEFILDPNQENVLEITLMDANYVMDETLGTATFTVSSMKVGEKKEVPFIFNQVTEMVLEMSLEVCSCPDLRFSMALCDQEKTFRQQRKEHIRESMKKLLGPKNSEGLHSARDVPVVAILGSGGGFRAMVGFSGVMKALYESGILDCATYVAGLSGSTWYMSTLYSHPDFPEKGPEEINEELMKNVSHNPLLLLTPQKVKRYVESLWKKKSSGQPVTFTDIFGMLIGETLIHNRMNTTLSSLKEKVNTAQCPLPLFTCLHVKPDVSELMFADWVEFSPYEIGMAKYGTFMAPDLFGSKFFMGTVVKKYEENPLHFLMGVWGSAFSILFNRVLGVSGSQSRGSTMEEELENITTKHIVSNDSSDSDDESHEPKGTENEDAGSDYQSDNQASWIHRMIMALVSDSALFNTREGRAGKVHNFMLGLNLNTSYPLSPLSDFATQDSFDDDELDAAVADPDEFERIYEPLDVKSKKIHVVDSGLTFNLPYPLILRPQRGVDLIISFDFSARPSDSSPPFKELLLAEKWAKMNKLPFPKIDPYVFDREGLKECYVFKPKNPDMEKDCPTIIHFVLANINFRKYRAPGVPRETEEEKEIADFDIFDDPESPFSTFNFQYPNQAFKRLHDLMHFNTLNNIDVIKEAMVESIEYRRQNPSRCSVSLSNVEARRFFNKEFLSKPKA

| Structure (SMILES) | inhibition at 5 µM [1] | IC50 [1, 3] | other results |
| --- | --- | --- | --- |
| CNc1ccc2oc(C[C@H]3O[C@@]4(CC[C@H]3C)O[C@H]([C@H](C)C(=O)c3ccc[nH]3)[C@H](C)C[C@H]4C)nc2c1C(=O)O [A23187] | – | – | toxic concentration by MTT assay (HaCaT cells): higher than 10 μM |
| CCCCC/C=C\C/C=C\C/C=C\C/C=C\CCCC(=O)C(F)(F)F [AACOCF3, reference compound] | 75 to 80% | – | IC50 [1]: 5.8 ± 1.9 µM |
| CC/C=C\C/C=C\C/C=C\C/C=C\C/C=C\C/C=C\CCC(=O)C(F)(F)F [DHACOCF3] | 30% | 21.3 ± 1.5 µM | – |
| CC/C=C\C/C=C\C/C=C\C/C=C\C/C=C\CCCC(=O)C(F)(F)F [EPACOCF3] | 75 to 80% | 2.9 ± 1.9 µM | IC50 ([2]; HaCaT): 180 nM |
| CC/C=C\C/C=C\C/C=C\C/C=C\C/C=C\CCSCC(=O)C(F)(F)F [EPASCOCF3] | 75 to 80% | 3.5 µM | – |
| CS(=O)(=O)Nc1ccc([N+](=O)[O-])cc1OC1CCCCC1 [NS-398, reference compound] | – | – | IC50 ([2]; LPS-stimulated HaCaT cells, inhibitor 0.2-25 μM for 30 min, FIG. 4): 240 nM |
